According to patent US5070210A, “Novel ketenimines as intermediates for insecticides” (ICI Americas Inc., priority 1990, dated 1991):

Assays:
Assay type in all cases: in vivo
[1] = tested on: Housefly [Musca domestica]; experiment: Housefly insecticidal test; details: μg per 25 female flies; mortality after 48 hours
Protocol: (§1) The compounds in Tables 1 and 2 above were tested for insecticidal activity using the following testing procedures. LC50 values, based on the results of these tests and calculated according to dosage-mortality curves, are expressed in Table 3.
Housefly [Musca domestica]:
Test compounds were diluted in acetone and aliquots pipetted onto the bottom of aluminum dishes. To ensure even spreading of the chemical on the bottom of the dishes, 1 ml of acetone containing 0.01% peanut oil was also added to each dish. After all solvents had evaporated, the dishes were placed in circular cardboard cages containing 25 female houseflies, 1-2 days old. The cages were covered on the bottom with cellophane and on the top with tulle netting, and each contained a sugar-water saturated cotton plug for maintenance of the flies. Mortality was recorded after 48 hours. Test levels ranged from 100 μg/25 female houseflies downward. The LC-50 value is expressed below in Table 3 under the heading "HF", in terms of μg of the test compound per 25 female flies.

[2] = tested on: Tobacco Budworm [Heliothis virescens (Fabricius)] eggs; experiment: Tobacco budworm egg test; details: 2-day old eggs, percent in solution
Protocol: as §1
Tobacco Budworm [Heliothis virescens (Fabricius)]:
(b). Eggs: Paper towel patches of 2-day old eggs of the tobacco budworm were dipped in acetone solutions of the test compound and placed in petri dishes containing a portion of larval rearing medium. Treated eggs were maintained at 78° F. and mortality was recorded after all control eggs had hatched and the young larvae were feeding on the media. Test concentrations ranged from 0.1% downward. The LC-50 value is expressed below in Table 3 under the heading "TBW-E" in terms of percent of the test compound in the solution.

[3] = tested on: Cabbage Looper [Trichoplusia ni (Hubner)]; experiment: Cabbage looper insecticidal test; details: second-instar larvae, percent in solution; 3-5 days
Protocol: as §1
Cabbage Looper [Trichoplusia ni (Hubner)]:
Test compounds were diluted in a 50-50 acetone-water solution. Cotyledons of hyzini squash (Calabacita abobrinha), approximately 1×1.5 inches, were immersed in the test solutions for 2-3 seconds and placed on a wire screen to dry. The dried leaves were placed in petri dishes containing a moistened piece of filter paper and infested with 5 second-instar cabbage looper larvae. The dishes were placed in a high humidity chamber. Mortality of the larvae was recorded 3-5 days later. Test concentrations ranged from 0.1% downward. The LC-50 value is expressed below in Table 3 under the heading "CL" in terms of percent of the test compound in solution.

Structure (SMILES) | LC50, HF [1] [µg] | LC50, TBW, E (TBW-E) [2] [%] | LC50, CL [3] [%]
Cc1cc(Br)ccc1N=C(OCc1cccc(Oc2ccccc2)c1)C(C)C [Compound 133] | 66 | 0.1 | 0.005
CC(C)(C)C(=Nc1cccc(Br)c1)OCc1cccc(Oc2ccccc2)c1 [Compound 134] | > 100 | > 0.1 | 0.015
CC(C)C(=Nc1cccc(I)c1)OCc1cccc(Oc2ccccc2)c1 [Compound 136] | 9 | 0.08 | 0.004
CSc1ccc(N=C(OCc2cccc(Oc3ccccc3)c2)C(Cl)Cl)cc1 [Compound 141] | 35 | > 0.1 | < 0.1
Cc1cccc(N=C(OCc2cccc(Oc3ccccc3)c2)C(C)C)c1C [Compound 148] | 18 | 0.025 | 0.0025
COc1ccc(C)cc1N=C(OCc1cccc(Oc2ccccc2)c1)C(C)C [Compound 150] | 89 | > 0.1 | 0.01
CCCCc1ccc(N=C(OCc2cccc(Oc3ccccc3)c2)C(C)C)cc1 [Compound 152] | > 100 | > 0.1 | 0.009
CCC(=Nc1ccc(CC)cc1)OCc1cccc(Oc2ccccc2)c1 [Compound 157] | 25 | > 0.1 | 0.009
Cc1ccc(N=C(OCc2cccc(Oc3ccccc3)c2)C(C)C)cc1C [Compound 158] | 9 | 0.1 | 0.003
CCOc1ccc(N=C(OCc2cccc(Oc3ccccc3)c2)C(C)(C)C)cc1 [Compound 164] | > 100 | > 0.1 | 0.005
CC(C)c1ccc(N=C(OCc2cccc(Oc3ccccc3)c2)C(C)(C)C)cc1 [Compound 165] | > 100 | > 0.1 | 0.007
CSc1cccc(N=C(OCc2cccc(Oc3ccccc3)c2)C(C)C)c1 [Compound 166] | 22 | > 0.1 | 0.009
Cc1ccc(N=C(OCc2cccc(Oc3ccccc3)c2)C(C)(C)C)cc1C [Compound 167] | > 100 | > 0.1 | 0.02
CCOC(=O)c1cccc(N=C(OCc2cccc(Oc3ccccc3)c2)C(C)(C)C)c1 [Compound 168] | > 100 | > 0.1 | 0.1
COc1ccc(N=C(OCc2cccc(Oc3ccccc3)c2)C(C)C)cc1OC [Compound 169] | 10 | > 0.1 | 0.009
CC(=O)c1cccc(N=C(OCc2cccc(Oc3ccccc3)c2)C(C)C)c1 [Compound 170] | 37 | > 0.1 | 0.1
CCOc1cccc(N=C(OCc2cccc(Oc3ccccc3)c2)C(C)C)c1 [Compound 171] | 80 | > 0.1 | 0.01
CC(C)(C)C(=Nc1cccc([N+](=O)[O-])c1)OCc1cccc(Oc2ccccc2)c1 [Compound 175] | > 100 | > 0.1 | 0.018
CC(C)C(=Nc1ccc2c(c1)OC(C)(C)O2)OCc1cccc(Oc2ccccc2)c1 [Compound 182] | 28 | 0.04 | 0.0006
CC(C)C(=Nc1ccc2c(c1)OCO2)OCc1cccc(Oc2ccccc2F)c1 [Compound 183] | 10 | 0.075 | 0.00075
CCCC(=Nc1ccc(OC)cc1)OCc1cccc(Oc2ccccc2)c1 [Compound 184] | 61 | > 0.1 | 0.024
CCC(C)C(=Nc1ccc2c(c1)OCO2)OCc1cccc(Oc2ccccc2)c1 (stereo not drawn) [Compound 185] | 13 | 0.075 | 0.0006
CC(C)C(=Nc1ccc2c(c1)OCO2)OCc1cccc(Oc2ccccc2F)c1 [Compound 190] | 7.5 | 0.023 | 0.0004

Structure (SMILES) | LC50, HF [1] [µg] | LC50, TBW, E (TBW-E) [2] [%] | LC50, CL [3] [%]
CC(C)C(=Nc1cccc(C(F)(F)F)c1)OCc1cccc(Oc2cccc(F)c2)c1 [Compound 192] | 25 | 0.07 | 0.0012
CC(C)C(=Nc1ccc(Cl)c(C(F)(F)F)c1)OCc1cccc(Oc2cccc(F)c2)c1 [Compound 195] | > 100 | > 0.1 | 0.002
CC(C)C(=Nc1ccc(F)cc1)OCc1cccc(Oc2ccc(F)cc2)c1 [Compound 197] | > 100 | 0.05 | 0.0004
CC(C)C(=Nc1cccc(F)c1)OCc1cccc(Oc2ccc(F)cc2)c1 [Compound 200] | 7.5 | 0.1 | 0.00075
COc1cccc(N=C(OCc2cccc(Oc3ccc(F)cc3)c2)C(C)C)c1 [Compound 201] | 15 | > 0.1 | 0.004
CC(C)C(=Nc1ccc(F)cc1)OCc1cccc(Oc2cccc(Cl)c2)c1 [Compound 205] | 50 | > 0.1 | 0.004
CC(C)C(=Nc1ccc(F)cc1)OCc1cccc(Oc2ccc(F)cc2F)c1 [Compound 206] | 50 | > 0.1 | 0.0017
CC(C)C(=Nc1ccc(Cl)c(Cl)c1)OCc1cccc(Oc2cccc(Cl)c2)c1 [Compound 207] | > 100 | > 0.1 | 0.008
CC(C)C(=Nc1ccc(C#N)cc1)OCc1cccc(Oc2cccc(Cl)c2)c1 [Compound 208] | 27 | > 0.1 | 0.0035
CCC(C)C(=Nc1ccc(Cl)c(Cl)c1)OCc1cccc(Oc2ccc(F)cc2)c1 (stereo not drawn) [Compound 211] | 61 | > 0.1 | 0.0017
CC(C)C(=Nc1ccc(F)c(F)c1)OCc1cccc(Oc2ccc(C#N)cc2)c1 [Compound 212] | 20 | 0.045 | 0.0005
CC(C)C(=Nc1ccc(Cl)c(Cl)c1)OCc1cccc(Oc2ccc(F)cc2F)c1 [Compound 213] | > 100 | > 0.1 | 0.00075
CC(C)C(=Nc1ccc(F)c(F)c1)OCc1cccc(Oc2ccc(F)cc2F)c1 [Compound 214] | 19 | 0.04 | 0.0003
CC(C)C(=Nc1ccc(F)c(Cl)c1)OCc1cccc(Oc2cc(F)cc(F)c2)c1 [Compound 215] | 75 | > 0.1 | 0.00075
CC(C)C(=Nc1ccc(Cl)c(Cl)c1)OCc1cccc(Oc2ccc(F)c(F)c2)c1 [Compound 218] | 25 | 0.025 | 0.0003
COc1ccc(Oc2cccc(COC(=Nc3ccc(F)cc3)C(C)C)c2)cc1 [Compound 220] | 85 | > 0.1 | 0.007
COc1ccc(Oc2cccc(COC(=Nc3ccc(F)c(Cl)c3)C(C)C)c2)cc1 [Compound 221] | 62 | > 0.1 | 0.0027
CC(C)C(=Nc1ccc(C#N)c(F)c1)OCc1cccc(Oc2ccc(F)cc2)c1 [Compound 222] | 32 | > 0.1 | 0.0015
COc1ccc(Oc2cccc(COC(=Nc3ccc(Cl)c(Cl)c3)C(C)C)c2)cc1 [Compound 223] | 43 | > 0.1 | 0.008
CC(C)(Cl)C(=Nc1ccc(F)c(Cl)c1)OCc1cccc(Oc2ccc(F)cc2)c1 [Compound 224] | > 100 | > 0.1 | 0.001
CC(C)C(=Nc1ccc(C#N)cc1)OCc1cccc(Oc2ccc(F)cc2)c1 [Compound 227] | 10 | 0.1 | 0.0015
CC(C)C(=Nc1cccc(Br)c1)OCc1cccc(Oc2ccc(F)cc2)c1 [Compound 229] | 20 | > 0.1 | 0.0005
